From ChEMBL document CHEMBL4118098, “Discovery of DS28120313 as a potent orally active hepcidin production inhibitor: Design and optimization of novel 4,6-disubstituted indazole derivatives” (Bioorg Med Chem Lett, 2017)
Each block holds one molecule with its values, some of them ahead of it.

Legend:
[1] = biological target: Calcium/calmodulin-dependent protein kinase type IV (Homo sapiens) (UniProt Q16566); assay: Inhibition of CAMK4 (unknown origin) at 0.45 uM relative to control
[2] = biological target: Ribosomal protein S6 kinase (Homo sapiens) (UniProt P51812+Q9UBS0+O75676+Q15349+O75582+P23443+Q9UK32+Q15418); assay: Inhibition of p70S6K (unknown origin) at 0.45 uM relative to control; format: protein assay
[3] = biological target: Mitogen-activated protein kinase 1 (Homo sapiens) (UniProt P28482); assay: Inhibition of Erk2 (unknown origin) at 0.164 uM relative to control
[4] = biological target: Tyrosine-protein kinase Srms (Homo sapiens) (UniProt Q9H3Y6); assay: Inhibition of SRM (SRMS) (unknown origin) at 0.164 uM relative to control
Sequence of Tyrosine-protein kinase Srms (Homo sapiens) (Q9H3Y6 whole entry): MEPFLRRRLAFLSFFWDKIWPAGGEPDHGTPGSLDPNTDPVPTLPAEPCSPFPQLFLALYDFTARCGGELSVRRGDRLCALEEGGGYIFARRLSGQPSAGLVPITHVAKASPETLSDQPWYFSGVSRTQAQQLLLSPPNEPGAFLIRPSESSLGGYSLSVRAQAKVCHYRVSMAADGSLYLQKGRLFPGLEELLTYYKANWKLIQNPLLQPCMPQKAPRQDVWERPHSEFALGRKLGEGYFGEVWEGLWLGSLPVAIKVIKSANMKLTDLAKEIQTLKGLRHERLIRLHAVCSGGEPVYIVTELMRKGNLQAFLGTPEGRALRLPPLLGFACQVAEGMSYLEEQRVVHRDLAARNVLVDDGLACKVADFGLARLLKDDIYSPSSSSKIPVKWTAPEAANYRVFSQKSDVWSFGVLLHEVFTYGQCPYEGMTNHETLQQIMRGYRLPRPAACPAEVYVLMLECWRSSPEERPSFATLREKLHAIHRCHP

[5] = biological target: Receptor-type tyrosine-protein kinase FLT3 (Homo sapiens) (UniProt P36888); assay: Inhibition of FLT3 (unknown origin) at 0.164 uM relative to control
[6] = system: Tyrosine-protein kinase ABL1 (Homo sapiens), P00519 [T315I]; assay: Inhibition of Abl T315I mutant (unknown origin) at 0.164 uM relative to control
[7] = biological target: Interleukin-1 receptor-associated kinase 4 (Homo sapiens) (UniProt Q9NWZ3); assay: Inhibition of IRAK4 (unknown origin) at 0.164 uM relative to control
Sequence of Interleukin-1 receptor-associated kinase 4 (Homo sapiens) (Q9NWZ3 whole entry): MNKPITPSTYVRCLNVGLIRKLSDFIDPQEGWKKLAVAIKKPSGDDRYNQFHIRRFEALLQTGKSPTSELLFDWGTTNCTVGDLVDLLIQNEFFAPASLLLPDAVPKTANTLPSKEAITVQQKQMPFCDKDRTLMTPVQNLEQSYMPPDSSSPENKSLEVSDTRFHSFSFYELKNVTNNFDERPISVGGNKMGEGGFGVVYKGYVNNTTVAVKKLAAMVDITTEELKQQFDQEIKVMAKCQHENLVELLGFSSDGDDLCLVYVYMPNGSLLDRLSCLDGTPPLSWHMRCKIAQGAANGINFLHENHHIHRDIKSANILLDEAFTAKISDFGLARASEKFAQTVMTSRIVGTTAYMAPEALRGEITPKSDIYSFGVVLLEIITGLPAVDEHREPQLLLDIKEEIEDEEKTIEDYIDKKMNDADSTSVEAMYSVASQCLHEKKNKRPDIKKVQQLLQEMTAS

[8] = system: Epidermal growth factor receptor (Homo sapiens), P00533 [L858R,T790M]; assay: Inhibition of EGFR T790M/L858R double mutant (unknown origin) at 0.164 uM relative to control
[9] = biological target: AMP-activated protein kinase, AMPK (Homo sapiens) (UniProt P54646+O43741+P54619+Q9UGJ0+Q9Y478+Q13131+Q9UGI9); assay: Inhibition of AMPK (unknown origin) at 0.164 uM relative to control; format: protein-complex assay
[10] = biological target: Calcium/calmodulin-dependent protein kinase type II subunit beta (Homo sapiens) (UniProt Q13554); assay: Inhibition of CaMK2-beta (unknown origin) at 0.164 uM relative to control
Sequence of Calcium/calmodulin-dependent protein kinase type II subunit beta (Homo sapiens) (Q13554 whole entry): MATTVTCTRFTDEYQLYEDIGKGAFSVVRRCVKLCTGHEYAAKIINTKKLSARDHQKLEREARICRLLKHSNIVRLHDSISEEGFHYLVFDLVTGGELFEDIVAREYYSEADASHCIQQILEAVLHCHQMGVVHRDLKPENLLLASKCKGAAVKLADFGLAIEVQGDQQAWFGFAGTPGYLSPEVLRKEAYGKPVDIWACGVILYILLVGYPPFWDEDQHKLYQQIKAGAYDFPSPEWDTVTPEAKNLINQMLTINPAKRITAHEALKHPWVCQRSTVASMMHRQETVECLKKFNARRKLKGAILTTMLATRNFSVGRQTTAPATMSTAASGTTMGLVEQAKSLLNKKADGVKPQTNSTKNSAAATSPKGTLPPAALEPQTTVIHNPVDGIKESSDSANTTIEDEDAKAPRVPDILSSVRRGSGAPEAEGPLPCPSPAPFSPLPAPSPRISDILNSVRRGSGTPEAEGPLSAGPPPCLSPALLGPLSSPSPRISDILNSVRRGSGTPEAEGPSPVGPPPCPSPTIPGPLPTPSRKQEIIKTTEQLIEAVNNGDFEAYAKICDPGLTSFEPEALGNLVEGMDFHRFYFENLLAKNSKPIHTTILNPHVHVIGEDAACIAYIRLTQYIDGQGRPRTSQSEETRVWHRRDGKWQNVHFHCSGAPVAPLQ

[11] = biological target: Tyrosine-protein kinase Lyn (Homo sapiens) (UniProt P07948); assay: Inhibition of LYN (unknown origin) at 0.164 uM relative to control
Sequence of Tyrosine-protein kinase Lyn (Homo sapiens) (P07948 2-512 limits assumed): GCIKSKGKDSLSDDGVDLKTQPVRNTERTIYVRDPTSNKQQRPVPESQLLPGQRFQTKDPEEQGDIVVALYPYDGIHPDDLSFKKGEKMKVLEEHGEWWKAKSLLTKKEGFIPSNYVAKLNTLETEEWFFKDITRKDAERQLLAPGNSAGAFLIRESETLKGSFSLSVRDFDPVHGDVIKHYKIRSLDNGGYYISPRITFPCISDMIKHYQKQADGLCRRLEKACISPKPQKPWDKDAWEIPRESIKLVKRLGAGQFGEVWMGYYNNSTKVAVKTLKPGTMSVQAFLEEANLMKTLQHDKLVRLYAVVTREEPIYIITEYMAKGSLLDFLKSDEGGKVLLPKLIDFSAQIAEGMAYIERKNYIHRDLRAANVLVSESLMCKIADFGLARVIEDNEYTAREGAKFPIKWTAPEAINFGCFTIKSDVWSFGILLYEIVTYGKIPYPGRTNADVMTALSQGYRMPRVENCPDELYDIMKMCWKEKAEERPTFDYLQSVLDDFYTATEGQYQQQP

[12] = biological target: RAC-gamma serine/threonine-protein kinase (Homo sapiens) (UniProt Q9Y243); assay: Inhibition of AKT3 (unknown origin) at 0.164 uM relative to control
Sequence of RAC-gamma serine/threonine-protein kinase (Homo sapiens) (Q9Y243 whole entry): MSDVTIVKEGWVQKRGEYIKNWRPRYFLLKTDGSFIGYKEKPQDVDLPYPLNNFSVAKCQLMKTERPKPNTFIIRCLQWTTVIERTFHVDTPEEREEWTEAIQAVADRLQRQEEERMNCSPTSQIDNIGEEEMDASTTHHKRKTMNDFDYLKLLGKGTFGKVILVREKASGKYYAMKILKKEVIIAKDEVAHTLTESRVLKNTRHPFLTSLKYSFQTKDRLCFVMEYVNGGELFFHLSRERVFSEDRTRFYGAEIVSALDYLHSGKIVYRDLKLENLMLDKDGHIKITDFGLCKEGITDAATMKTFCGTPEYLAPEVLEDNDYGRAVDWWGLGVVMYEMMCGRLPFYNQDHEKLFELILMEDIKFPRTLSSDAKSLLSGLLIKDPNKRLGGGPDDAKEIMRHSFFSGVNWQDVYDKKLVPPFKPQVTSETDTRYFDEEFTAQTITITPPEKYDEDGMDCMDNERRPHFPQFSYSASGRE

[13] = system: Mast/stem cell growth factor receptor Kit (Homo sapiens), P10721 [T670I]; assay: Inhibition of KIT T670I mutant (unknown origin) at 0.164 uM relative to control
Sequence of Mast/stem cell growth factor receptor Kit (Homo sapiens), P10721 [T670I] (P10721 whole entry T670I): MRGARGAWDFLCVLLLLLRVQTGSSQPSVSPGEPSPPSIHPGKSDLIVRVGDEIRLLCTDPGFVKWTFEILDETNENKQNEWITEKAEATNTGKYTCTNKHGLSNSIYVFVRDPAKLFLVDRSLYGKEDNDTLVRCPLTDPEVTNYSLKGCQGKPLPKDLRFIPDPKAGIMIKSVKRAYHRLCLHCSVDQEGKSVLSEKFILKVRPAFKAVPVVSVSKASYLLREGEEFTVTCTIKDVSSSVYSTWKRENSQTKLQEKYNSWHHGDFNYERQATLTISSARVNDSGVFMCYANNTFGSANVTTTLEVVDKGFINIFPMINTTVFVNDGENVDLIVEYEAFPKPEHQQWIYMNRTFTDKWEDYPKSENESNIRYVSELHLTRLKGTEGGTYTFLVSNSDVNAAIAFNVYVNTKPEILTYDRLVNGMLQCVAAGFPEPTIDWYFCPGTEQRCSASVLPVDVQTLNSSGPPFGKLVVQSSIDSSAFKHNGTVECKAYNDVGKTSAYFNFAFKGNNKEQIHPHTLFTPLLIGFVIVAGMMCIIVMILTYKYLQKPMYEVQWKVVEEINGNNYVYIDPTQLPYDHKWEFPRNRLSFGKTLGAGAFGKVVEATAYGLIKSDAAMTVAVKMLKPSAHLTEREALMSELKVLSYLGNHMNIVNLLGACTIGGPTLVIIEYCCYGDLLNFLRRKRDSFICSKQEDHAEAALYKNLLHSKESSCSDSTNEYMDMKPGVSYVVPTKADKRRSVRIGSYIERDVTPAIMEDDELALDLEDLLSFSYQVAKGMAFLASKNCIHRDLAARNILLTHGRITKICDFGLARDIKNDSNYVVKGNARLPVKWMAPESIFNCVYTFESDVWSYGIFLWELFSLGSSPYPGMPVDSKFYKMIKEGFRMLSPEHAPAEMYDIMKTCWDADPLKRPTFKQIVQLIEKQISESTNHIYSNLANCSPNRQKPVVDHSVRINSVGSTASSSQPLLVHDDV

[14] = biological target: Tyrosine-protein kinase Fer (Homo sapiens) (UniProt P16591); assay: Inhibition of Fer (unknown origin) at 0.164 uM relative to control
[15] = Lipophilicity, log D of the compound; format: physicochemical; conditions: octanol/water
[16] = biological target: Ephrin type-A receptor 1 (Homo sapiens) (UniProt P21709); assay: Inhibition of EPHA1 (unknown origin) at 0.164 uM relative to control
Sequence of Ephrin type-A receptor 1 (Homo sapiens) (P21709 whole entry): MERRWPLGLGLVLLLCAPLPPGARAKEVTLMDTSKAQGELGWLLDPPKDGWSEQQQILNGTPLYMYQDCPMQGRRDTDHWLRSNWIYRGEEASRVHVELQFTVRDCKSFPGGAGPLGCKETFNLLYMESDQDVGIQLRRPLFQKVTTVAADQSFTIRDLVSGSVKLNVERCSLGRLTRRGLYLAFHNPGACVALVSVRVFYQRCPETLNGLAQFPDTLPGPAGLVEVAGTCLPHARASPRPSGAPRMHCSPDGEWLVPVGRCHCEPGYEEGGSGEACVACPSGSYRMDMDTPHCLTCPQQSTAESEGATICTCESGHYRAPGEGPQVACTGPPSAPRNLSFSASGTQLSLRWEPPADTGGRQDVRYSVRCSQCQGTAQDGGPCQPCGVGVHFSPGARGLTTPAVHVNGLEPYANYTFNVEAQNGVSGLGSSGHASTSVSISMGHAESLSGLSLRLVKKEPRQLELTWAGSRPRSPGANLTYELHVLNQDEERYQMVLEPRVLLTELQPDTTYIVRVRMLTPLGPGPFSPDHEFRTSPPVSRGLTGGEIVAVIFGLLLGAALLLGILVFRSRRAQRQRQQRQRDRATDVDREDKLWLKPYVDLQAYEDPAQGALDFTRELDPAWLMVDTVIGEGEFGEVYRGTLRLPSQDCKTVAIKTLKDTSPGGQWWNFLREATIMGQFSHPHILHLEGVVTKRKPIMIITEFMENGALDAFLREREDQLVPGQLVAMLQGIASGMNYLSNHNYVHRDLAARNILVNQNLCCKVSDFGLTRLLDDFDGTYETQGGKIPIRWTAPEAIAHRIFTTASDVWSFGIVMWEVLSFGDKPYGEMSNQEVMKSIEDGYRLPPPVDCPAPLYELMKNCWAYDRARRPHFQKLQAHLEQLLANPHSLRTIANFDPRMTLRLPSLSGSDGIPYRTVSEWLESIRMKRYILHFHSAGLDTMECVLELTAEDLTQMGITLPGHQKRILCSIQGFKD

[17] = biological target: T1, Serine/threonine-protein kinase DCLK1 (Homo sapiens) (UniProt O15075); assay: Inhibition of DCAMKL1 (unknown origin) at 0.19 uM relative to control
T1 sequence (whole entry): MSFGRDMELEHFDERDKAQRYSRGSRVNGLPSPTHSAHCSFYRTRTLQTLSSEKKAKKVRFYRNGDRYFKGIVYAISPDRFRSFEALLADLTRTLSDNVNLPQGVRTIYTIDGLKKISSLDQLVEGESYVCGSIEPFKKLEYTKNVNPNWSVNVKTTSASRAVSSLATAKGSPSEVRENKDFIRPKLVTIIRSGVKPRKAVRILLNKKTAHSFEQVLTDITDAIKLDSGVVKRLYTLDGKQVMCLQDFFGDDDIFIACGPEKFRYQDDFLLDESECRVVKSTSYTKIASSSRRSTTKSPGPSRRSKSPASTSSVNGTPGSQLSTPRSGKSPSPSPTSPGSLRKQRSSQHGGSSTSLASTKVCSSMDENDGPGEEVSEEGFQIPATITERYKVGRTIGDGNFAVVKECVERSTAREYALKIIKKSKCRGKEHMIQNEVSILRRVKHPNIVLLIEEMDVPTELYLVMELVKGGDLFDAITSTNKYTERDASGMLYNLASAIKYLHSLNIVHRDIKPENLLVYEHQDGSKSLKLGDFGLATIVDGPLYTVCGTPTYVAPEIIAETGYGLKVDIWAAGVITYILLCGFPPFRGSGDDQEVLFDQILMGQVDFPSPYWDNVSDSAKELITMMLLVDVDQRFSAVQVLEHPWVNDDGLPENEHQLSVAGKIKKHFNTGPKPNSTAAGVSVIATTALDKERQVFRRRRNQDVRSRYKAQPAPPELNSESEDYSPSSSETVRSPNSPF

Homo sapiens = species: Homo sapiens; assay: Inhibition of PKA (unknown origin) at 0.19 uM relative to control
[18] = biological target: Interleukin-1 receptor-associated kinase 1 (Homo sapiens) (UniProt P51617); assay: Inhibition of IRAK1 (unknown origin) at 0.19 uM relative to control
[19] = biological target: Proto-oncogene tyrosine-protein kinase Src (Homo sapiens) (UniProt P12931); assay: Inhibition of SRC (unknown origin) at 0.19 uM relative to control
[20] = biological target: Vascular endothelial growth factor receptor 1 (Homo sapiens) (UniProt P17948); assay: Inhibition of FLT1 (unknown origin) at 0.19 uM relative to control
[21] = biological target: Tyrosine-protein kinase Lyn (Homo sapiens) (UniProt P07948); assay: Inhibition of LYN (unknown origin) at 0.19 uM relative to control
[22] = biological target: Serine/threonine-protein kinase PAK 2 (Homo sapiens) (UniProt Q13177); assay: Inhibition of PAK2 (unknown origin) at 0.19 uM relative to control
[23] = biological target: Tyrosine-protein kinase ABL1 (Homo sapiens) (UniProt P00519); assay: Inhibition of ABL (unknown origin) at 0.19 uM relative to control
[24] = biological target: T2, Mitogen-activated protein kinase 12 (Homo sapiens) (UniProt P53778); assay: Inhibition of p38-gamma (unknown origin) at 0.19 uM relative to control
T2 sequence (whole entry): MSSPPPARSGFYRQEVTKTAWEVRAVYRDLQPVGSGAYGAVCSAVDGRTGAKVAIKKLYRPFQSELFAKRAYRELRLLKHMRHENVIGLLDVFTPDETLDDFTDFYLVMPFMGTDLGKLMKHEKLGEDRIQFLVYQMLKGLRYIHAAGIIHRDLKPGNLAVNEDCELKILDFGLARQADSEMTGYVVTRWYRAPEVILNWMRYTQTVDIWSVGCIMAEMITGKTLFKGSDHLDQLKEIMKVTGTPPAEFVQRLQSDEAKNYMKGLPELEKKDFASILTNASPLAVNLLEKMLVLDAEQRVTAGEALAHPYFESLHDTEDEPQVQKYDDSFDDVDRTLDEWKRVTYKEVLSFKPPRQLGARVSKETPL

Sequence of Calcium/calmodulin-dependent protein kinase type IV (Homo sapiens) (Q16566 whole entry): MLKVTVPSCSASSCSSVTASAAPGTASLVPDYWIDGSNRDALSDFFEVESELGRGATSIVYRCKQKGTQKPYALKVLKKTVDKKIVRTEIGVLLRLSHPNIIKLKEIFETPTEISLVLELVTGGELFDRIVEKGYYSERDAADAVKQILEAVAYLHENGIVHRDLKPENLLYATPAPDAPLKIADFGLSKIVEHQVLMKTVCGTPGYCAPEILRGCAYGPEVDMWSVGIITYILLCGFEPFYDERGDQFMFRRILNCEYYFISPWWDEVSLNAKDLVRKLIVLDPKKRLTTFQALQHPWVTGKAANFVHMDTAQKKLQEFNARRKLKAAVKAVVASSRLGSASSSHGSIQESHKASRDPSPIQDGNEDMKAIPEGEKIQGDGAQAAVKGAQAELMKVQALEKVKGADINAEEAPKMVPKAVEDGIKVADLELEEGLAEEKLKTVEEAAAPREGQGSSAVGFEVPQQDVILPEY

inhibition [1]: 0%
inhibition [2]: 1.3%
Structure (SMILES): Cc1n[nH]c(C)c1-c1ccc2c(NC(=O)c3ccc(N4CCN(C)CC4)cc3)n[nH]c2c1

inhibition [3]: 9%
inhibition [4]: 3.3%
inhibition [5]: 5%
inhibition [6]: -3.7%
inhibition [7]: -7.7%
inhibition [8]: 1%
inhibition [9]: 10.7%
inhibition [10]: 28%
inhibition [11]: 10%
inhibition [12]: -2%
inhibition [13]: 1%
inhibition [14]: -1.3%
logD [15]: 3.1
inhibition [16]: 1%
Structure (SMILES): COC(=O)Nc1cc(-c2c(C3CC3)n[nH]c2C)cc2[nH]ncc12

inhibition [17]: -1.3%
inhibition (Homo sapiens): 5.7%
inhibition [18]: -2.7%
inhibition [19]: 15.7%
inhibition [20]: 14.7%
inhibition [21]: 13.7%
inhibition [22]: -3%
inhibition [23]: 83.7%
inhibition [24]: -3%
Structure (SMILES): Cc1[nH]nc(C2CC2)c1-c1ccc2c(-c3ccc(N4CCN(C)CC4)nc3)n[nH]c2c1
